Numbers after ± are expanded uncertainties.
Assay: refractive index (Na D-line) (dimensionless); wn = mass fraction of the nth substance listed
Conditions: 298.15 K, 101 kPa, Liquid, Standard Abbe refractometry

**Q.** Which results are given for CN1CCCC1=O [N-methylpyrrolidone] + O?
**A.** refractive index (w1 = 0.0958): 1.3462 ± 0.0005; refractive index (w1 = 0.0961): 1.3462 ± 0.0005

**Q.** Which refractive index (w1 = 0.0473) does the source give for CC#N [acetonitrile] + O here?
**A.** Its refractive index is 1.3425 ± 0.0005.

**Q.** And the refractive index (w1 = 0.0477)?
**A.** The refractive index was 1.3404 ± 0.0005.

**Q.** For O=C([O-])[O-].[K+].[K+] [potassium carbonate] + O, which refractive index (w1 = 0.0475) is on record?
**A.** The refractive index was 1.3401 ± 0.0005.

**Q.** What about the refractive index (w1 = 0.0968) of the same compound?
**A.** Its refractive index is 1.3378 ± 0.0005.

**Q.** For O=C([O-])[O-].[Na+].[Na+] [sodium carbonate] + O, which refractive index (w1 = 0.0473) is on record?
**A.** Its refractive index is 1.3426 ± 0.0005.

**Q.** And the refractive index (w1 = 0.097)?
**A.** The refractive index was 1.3378 ± 0.0005.
